{"source": "paper PMC10287183", "about": "(Antiviral Research, 2023)", "key": {"CatB and CatL": {"tested_on": "CatB and CatL", "experiment": "Z-Phe-Arg-AMC substrate degradation in whole cell lysates with CA-074", "assay_type": "biochemical", "details": "CA-074 10 μM"}, "SARS-CoV-2 Omicron": {"tested_on": "SARS-CoV-2 Omicron", "experiment": "microbe, parasite or virus in culture", "assay_type": "cell-based", "details": "Severe acute respiratory syndrome coronavirus 2, read-out: EC90 (mean ± SD)"}, "in vitro [1]": {"experiment": "in vitro", "details": "human"}, "in vitro [2]": {"experiment": "in vitro", "details": "human", "remark": "listed apart in the source"}}}
{"smiles": "CCCNC(=O)[C@H]1O[C@@H]1C(=O)N[C@H](C(=O)N1CCC[C@H]1C(=O)O)[C@@H](C)CC", "note": "[CA-074]", "values": [{"measurement": "Z-Phe-Arg-AMC substrate degradation", "setting": "CatB and CatL; Calu-3 whole cell lysate", "value": "almost completely abolished"}, {"measurement": "Z-Phe-Arg-AMC substrate degradation", "setting": "CatB and CatL; Huh7-hACE2 whole cell lysate", "value": "almost completely abolished"}, {"measurement": "Z-Phe-Arg-AMC substrate degradation", "setting": "CatB and CatL; Vero E6 whole cell lysate", "value": "did not reduce substrate degradation"}]}
{"smiles": "O=[N+]([O-])c1ccc(O)c2ncccc12", "note": "[Nitroxoline, nitroxoline]", "values": [{"measurement": "EC90", "setting": "SARS-CoV-2 Omicron", "value": "6.4 ± 0.6", "unit": "µM"}, {"measurement": "CC50", "setting": "in vitro [1]", "value": "> 100", "unit": "µM"}, {"measurement": "CC50", "setting": "in vitro [2]", "value": "> 100", "unit": "µM"}]}
{"smiles": "CCN(CCO)CCCC(C)Nc1ccnc2cc(Cl)ccc12", "note": "(stereo not shown) [Hydroxychloroquin, Hydroxychloroquine]", "values": [{"measurement": "EC90", "setting": "SARS-CoV-2 Omicron", "value": "7.7 ± 1.2", "unit": "µM"}]}
